# Patent US10227349B2, “Pyrazolo[1,5-a]pyrimidine compound” (Eisai R&D Management Co., Ltd., priority 2016, dated 2019)
# Legend:
# [1] = system: OXA-induced enteritis in BALB/c male mice; assay: Model mouse for enteritis (OXA-induced, bowel length); assay type: in vivo; conditions: po, 48 h, 0.1 mg/mL solution 10 mL/kg orally twice (1 hour before and day after OXA induction), length of colon and rectum two days after induction, read-out: Inhibitory activity on bowel shortening (%)
# Experimental: Generally, the bowel length is known to be shorter during enteritis (Maxwell, J. R. et al. Curr. Protoc. Pharmacol. Chapter 5: Unit 5.58, 2009). The bowel length in an enteritis model was measured to evaluate the effect of the test compound.
# The test compound was added to a 0.5% carboxymethyl cellulose solution so as to have a final concentration of 0.1 mg/mL, thereby preparing an administration solution containing the test compound. Hapten used was 4-ethoxymethylene-2-phenyloxazol-5-one (OXA, SIGMA-ALDRICH).
# One hundred (100) μL of a solution of OXA diluted to 0.3% with ethanol was applied to the shaved abdominal region of BALB/c male mice (Charles River), 6-10 weeks of age, to create the sensitization. Five days after the sensitization, OXA was intrarectally administered to induce an enteritis reaction. More specifically, a syringe equipped with a sonde for oral administration was inserted into the anus of the mouse anesthetized by the inhalation of isoflurane at a concentration of 4-5% and 50 μL of the OXA solution adjusted to 1% with a solvent of 50% ethanol/50% distilled water was administered into the rectum.
# One hour before and on the day following the induction of enteritis, the administration solution containing the test compound (10 mL/kg) was orally administered twice in total to the mice. Two days after the induction of enteritis, the mice were euthanized by cervical dislocation and subsequently the cecum to the anus was collected to measure the combined length of the colon and the rectum using a ruler, thereby evaluating the action of the test compound.
# Note that Reference Example 1 in Table 6 is Compound (XIX).
# PAR2 [2] = molecular target: T1, PAR2 (Mus musculus, UniProt P55086); assay: Measurement of PAR2 agonist (SLIGRL-NH2)-induced salivation in mouse; assay type: in vivo; conditions: C57BL/6J male mice, 0.3 mg/mL solution 10 mL/kg orally, 60 min before SLIGRL-NH2 i.p., saliva collected 10 min
# T1 construct: orally administered to C57BL/6J male mice (Charles River), 6-10 weeks of age; tissue Charles River; host or cells: Living C57BL/6J male mice (in vivo; saliva secretion)
# T1 sequence (P55086 26-399): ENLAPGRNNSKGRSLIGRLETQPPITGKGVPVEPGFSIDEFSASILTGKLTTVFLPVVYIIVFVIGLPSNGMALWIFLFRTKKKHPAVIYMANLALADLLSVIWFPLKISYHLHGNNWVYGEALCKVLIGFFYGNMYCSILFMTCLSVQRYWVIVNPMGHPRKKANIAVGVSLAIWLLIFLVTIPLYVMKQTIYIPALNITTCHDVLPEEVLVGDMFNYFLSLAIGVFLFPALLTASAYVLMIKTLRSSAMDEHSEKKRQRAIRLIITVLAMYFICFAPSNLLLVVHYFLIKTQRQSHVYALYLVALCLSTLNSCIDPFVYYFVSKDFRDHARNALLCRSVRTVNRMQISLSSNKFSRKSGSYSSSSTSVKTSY
# Experimental: The test compound was added to a 0.5% carboxymethyl cellulose solution to which 2% DMSO was added, so as to have the final concentration of 0.3 mg/mL, thereby preparing an administration solution containing the test compound. The administration solution containing the test compound (10 mL/kg) was orally administered to C57BL/6J male mice (Charles River), 6-10 weeks of age, using an oral sonde and a syringe. Forty-five minutes after the administration of the test compound, 10 mL/kg of a 20% (w/v) urethane solution was intraperitoneal administered to the mice which were then anesthetized. Sixty minutes after the administration of the test compound, 10 mL/kg of a 0.1 mg/mL SLIGRL-NH2 (SEQ ID NO: 2) solution was intraperitoneally administered as the PAR2 agonist and a cotton ball was immediately placed in the oral cavity of the mouse to collect the saliva. Ten minutes after the administration of the PAR2 agonist, the cotton ball was removed and weighed to measure the amount of saliva secreted.
# Note that Reference Example 1 in Table 4 is Compound (XIX). Additionally, Comparative Compound in Table 4 is Compound (XX).
# PAR2 [3] = molecular target: T2, PAR2 (Homo sapiens, UniProt P55085); assay: Intracellular calcium concentration measurement (trypsin-induced calcium elevation, FDSS6000); assay type: cell-based; conditions: HEK293 cells, trypsin 5 U/mL as agonist, test compound added 30 min before measurement; read-out: Inhibitory activity on intracellular calcium elevation (IC50 (nM))
# T2 construct: Human embryonic kidney cell line HEK293 cells cultured using DMEM culture medium; endogenous in cells; host or cells: HEK293
# T2 sequence (P55085 26-397): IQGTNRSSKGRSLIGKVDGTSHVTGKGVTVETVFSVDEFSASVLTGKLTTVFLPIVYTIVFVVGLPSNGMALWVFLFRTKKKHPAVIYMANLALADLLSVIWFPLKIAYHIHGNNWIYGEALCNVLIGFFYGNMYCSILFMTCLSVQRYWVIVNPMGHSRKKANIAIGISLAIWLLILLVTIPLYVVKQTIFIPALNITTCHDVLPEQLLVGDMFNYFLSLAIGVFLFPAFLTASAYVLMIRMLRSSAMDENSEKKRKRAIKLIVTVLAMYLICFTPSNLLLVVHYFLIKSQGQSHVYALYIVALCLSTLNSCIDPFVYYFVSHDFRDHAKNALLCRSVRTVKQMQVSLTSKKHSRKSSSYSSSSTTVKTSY
# Text: In the present specification, examples of the measurement method for the PAR2 inhibitory activity include measurement method for a concentration elevation of intracellular calcium; measurement method for a production increase of intracellular inositol trisphosphate; measurement method for an increase in intracellular protein phosphorylation by protein kinase C and MAP kinase; and measurement method for a production amount or a release amount of inflammation-related physiologically active substances such as cytokine, chemokine, prostaglandin and nitric monoxide. Examples of the measurement method for an elevation of intracellular calcium concentration include a method wherein a calcium-binding fluorescent probe is allowed to be incorporated in advance into a cultured cell line or an animal-derived isolated cell having PAR2, or a cell in which PAR2 is artificially expressed, a protease having the PAR2 activity function such as trypsin or a PAR2 agonist (synthetic peptides such as SLIGKV-NH2 (SEQ ID NO: 1) and SLIGRL-NH2 (SEQ ID NO: 2) is added to activate PAR2 whereby fluctuating intracellular calcium concentrations are detected as changes in the fluorescent signal. Alternatively, it is also possible to measure an intracellular calcium concentration by determining the quantity of a fluorescence intensity produced in proportion to the calcium concentration using a calcium-binding luminescent protein overexpressing cell line such as Aequorin. Specifically, examples include the methods described in Test Examples of the present specification.
# Human embryonic kidney cell line HEK293 cells cultured using DMEM culture medium (Invitrogen) with 3% fetal bovine serum (3% FBS)-added was prepared to have a concentration of 2×10^5 cells/mL, and plated in a type I collagen-coated 384-well black plate (clear bottom) (Greiner) so as to be 25 μL/well and cultured in a CO2 incubator overnight. FLIPR Calcium Assay Kit (Molecular Devices) prepared with Hanks-20 mM Hepes buffer (pH 7.4) was added to the cells so as to be 25 μL/well and cultured in the CO2 incubator for 1 hour. Trypsin (SIGMA-ALDRICH, catalog number: T8816, Enzyme Commission Number 3.4.21.4) prepared so as to be 5 U/mL as final concentration (BAEE unit) with Hanks-20 mM Hepes buffer (pH 7.4) was added to a 384-well deep well polypropylene plate (Greiner) to be an agonist reagent plate. Thirty minutes before the measurement using FDSS6000 (Hamamatsu Photonics K.K.), a test compound prepared with Hanks-20 mM Hepes buffer (pH 7.4) was added to the cell so as to be 8 μL/well. The cell plate to which the test compound was added and the reagent plate were set on FDSS6000, 22 μL/well of the agonist solution was added from the reagent plate, and the change in intracellular calcium concentration was measured with a CCD camera. The measurement was carried out at 37° C. for 120 seconds and the addition of reagent from the reagent plate to the cell plate was carried out using a built-in 384-well automatic dispenser of FDSS6000.
# Note that Reference Example 1 in Table 3 is the compound represented by formula (XIX) synthesized in the above Reference Example 1 (hereinafter, also referred to as Compound (XIX)). Additionally, the “Comparative Compound” in Table 3 is the compound described in Patent Literature 4 represented by the following formula (XX) (I-343; hereinafter, also referred to as Compound (XX)).
SMILES,Inhibitory activity on the PAR2-dependent saliva secretion (%) (PAR2 [2]),IC50 (PAR2 [3]) [nM],"inhibition in vivo at 100 µg/mL, 1 mg/kg [1] [%]"
"Cc1cccc(C)c1N(C)c1cc(C2CCC(C)(C)CC2)nc2cc(C(=O)N3CC[C@@H](CC(=O)O)[C@@H](F)C3)nn12 (relative stereo) [Example 3, 2-((3R*,4S*)-1-(5-(4,4-dimethylcyclohexyl)-7-((2,6-dimethylphenyl)(methyl)amino)pyrazolo[1,5-a]pyrimidine-2-carbonyl)-3-fluoropiperidin-4-yl) acetic acid]",86.7,8.73,–
"CO[C@H]1CN(C(=O)c2cc3nc(-c4ccc(F)c(Cl)c4)cc(N(C)c4c(C)cccc4C)n3n2)CC[C@H]1CC(=O)O (relative stereo) [Example 4, 2-((3R*,4S*)-1-(5-(3-chloro-4-fluorophenyl)-7-((2,6-dimethylphenyl)(methyl)amino)pyrazolo[1,5-a]pyrimidine-2-carbonyl)-3-methoxypiperidin-4-yl)acetic acid]",87.1,7.32,–
"Cc1n[nH]c(C(=O)N2CCN(C(=O)c3cn4nc(-c5ccc(F)cc5)cc(C(C)(C)C)c4n3)C(C)(C)C2)n1 [Comparative Compound, reference compound]",98.0,24.2,–
"CC(C)CN(c1cc(-c2cc(F)c(F)c(F)c2)nc2cc(C(=O)N(C)[C@H](C)CC(=O)O)nn12)[C@H](C)C(C)C [Example 9, (R)-3-(7-(isobutyl((R)-3-methylbutan-2-yl)amino)-N-methyl-5-(3,4,5-trifluorophenyl)pyrazolo[1,5-a]pyrimidine-2-carboxamide)butanoic acid]",96.0,4.9,–

# Second part, led by results:
Inhibitory activity on the PAR2-dependent saliva secretion (%) (PAR2 [2]),IC50 (PAR2 [3]) [nM],SMILES,"inhibition in vivo at 100 µg/mL, 1 mg/kg [1] [%]"
91.5,2.57,"Cc1cccc(C)c1N(C)c1cc(-c2cc(F)c(F)c(F)c2)nc2cc(C(=O)N3CC[C@@H](CC(=O)O)[C@@H](F)C3)nn12 (relative stereo) [Example 1, 2-((3R*,4S*)-1-(7-((2,6-dimethylphenyl)(methyl)amino)-5-(3,4,5-trifluorophenyl)pyrazolo[1,5-a]pyrimidine-2-carbonyl)-3-fluoropiperidin-4-yl)acetic acid]",60.4
97.8,6.88,"CO[C@H]1CN(C(=O)c2cc3nc(-c4ccc(Cl)c(F)c4)cc(N(C)c4c(C)cccc4Cl)n3n2)CC[C@H]1CC(=O)O (relative stereo) [Example 11, 2-((3R*,4S*)-1-(5-(4-chloro-3-fluorophenyl)-7-((2-chloro-6-methylphenyl)(methyl)amino)pyrazolo[1,5-a]pyrimidine-2-carbonyl)-3-methoxypiperidin-4-yl)acetic acid]",–
98.8,4.77,"CO[C@H]1CN(C(=O)c2cc3nc(-c4cc(F)c(Cl)c(F)c4)cc(N(C)c4c(C)cccc4Cl)n3n2)CC[C@H]1CC(=O)O (relative stereo) [Example 12, 2-((3R*,4S*)-1-(5-(4-chloro-3,5-difluorophenyl)-7-((2-chloro-6-methylphenyl)(methyl)amino)pyrazolo[1,5-a]pyrimidine-2-carbonyl)-3-methoxypiperidin-4-yl)acetic acid]",–
92.5,5.08,"CN(c1ccccc1Cl)c1cc(-c2cc(F)c(Cl)c(F)c2)nc2cc(C(=O)N3CC[C@@H](CC(=O)O)[C@@H](F)C3)nn12 (relative stereo) [Example 14, 2-((3R*,4S*)-1-(5-(4-chloro-3,5-difluorophenyl)-7-((2-chlorophenyl)(methyl)amino)pyrazolo[1,5-a]pyrimidine-2-carbonyl)-3-fluoropiperidin-4-yl)acetic acid]",–
95.1,7.38,"CCCN(c1cc(-c2cc(F)c(Cl)c(F)c2)nc2cc(C(=O)N3CC[C@@H](CC(=O)O)[C@@H](C)C3)nn12)C(C)C (relative stereo) [Example 18, 2-((3R*,4S*)-1-(5-(4-chloro-3,5-difluorophenyl)-7-(isopropyl(propyl)amino)pyrazolo[1,5-a]pyrimidine-2-carbonyl)-3-methylpiperidin-4-yl)acetic acid]",–
94.9,3.27,"CN(c1c(F)cccc1Cl)c1cc(-c2cc(F)c(F)c(F)c2)nc2cc(C(=O)N3CCC(CC(=O)O)CC3)nn12 [Example 17, 2-(1-(7-((2-chloro-6-fluorophenyl)(methyl)amino)-5-(3,4,5-trifluorophenyl)pyrazolo[1,5-a]pyrimidine-2-carbonyl)piperidin-4-yl)acetic acid]",–
